Data on 15 compounds can be found in patent US20230295200A1 (REGENTS OF THE UNIVERSITY OF MICHIGAN, priority 2022, published 2023).

Structures are written as SMILES. A value given as a limit tells only on which side of the number the result lay.

The target of the test is T1, STAT6 protein (Homo sapiens, UniProt P42226).
T1 sequence (P42226 1-847): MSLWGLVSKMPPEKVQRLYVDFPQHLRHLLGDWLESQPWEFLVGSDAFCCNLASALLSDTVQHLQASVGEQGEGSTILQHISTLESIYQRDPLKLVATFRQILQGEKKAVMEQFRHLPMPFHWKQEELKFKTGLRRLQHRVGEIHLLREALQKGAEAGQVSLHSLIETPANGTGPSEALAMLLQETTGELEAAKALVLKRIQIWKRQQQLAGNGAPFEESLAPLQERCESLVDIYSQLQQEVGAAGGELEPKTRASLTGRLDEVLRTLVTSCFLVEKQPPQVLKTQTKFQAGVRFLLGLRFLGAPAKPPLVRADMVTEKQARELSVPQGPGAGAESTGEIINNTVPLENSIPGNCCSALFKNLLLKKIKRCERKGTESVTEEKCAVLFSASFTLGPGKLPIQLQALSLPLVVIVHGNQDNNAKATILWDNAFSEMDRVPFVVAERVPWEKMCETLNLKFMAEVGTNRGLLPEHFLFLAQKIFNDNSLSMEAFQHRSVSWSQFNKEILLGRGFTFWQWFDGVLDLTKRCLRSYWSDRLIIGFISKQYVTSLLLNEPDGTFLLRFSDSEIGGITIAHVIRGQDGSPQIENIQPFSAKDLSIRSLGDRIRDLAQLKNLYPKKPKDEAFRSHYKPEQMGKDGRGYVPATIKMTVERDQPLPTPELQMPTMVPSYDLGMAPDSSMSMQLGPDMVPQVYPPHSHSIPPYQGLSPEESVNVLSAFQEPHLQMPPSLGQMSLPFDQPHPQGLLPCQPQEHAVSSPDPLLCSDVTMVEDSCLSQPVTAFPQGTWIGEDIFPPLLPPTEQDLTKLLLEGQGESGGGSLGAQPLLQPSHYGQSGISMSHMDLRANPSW
Nature of the test: Fluorescence polarization (FP) binding assay, STAT6. The following applies: FP competition, 5 nM fluorescein-labeled tracer, 200 nM protein, PBS pH7.4; read-out: Binding STAT6. The method in brief:
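Competitive FP read-out with 5 nM fluorescein-labeled tracer and 200 nM STAT5 or STAT6 protein in PBS pH 7.4 containing 0.01% BGG, 0.01% Tween-20 and 2 mM DTT. Plates were shaken 15 min, then equilibrated 1 h at room temperature; inhibition constants came from nonlinear curve fitting.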
For orientation: Polarisation of emitted light reports the rotation of a fluorescent probe.
As to `CC(=O)N1CC[C@H]2CC[C@@H](C(=O)N3CCc4c(F)cccc4C3)N2C(=O)[C@@H](NC(=O)c2cc3cc(C(F)(F)P(=O)(O)O)ccc3[nH]2)C1` [Compound 343, ((2-(((5S,8S,10aR)-3-acetyl-8-(5-fluoro-1,2,3,4-tetrahydroisoquinoline-2-carbonyl)-6-oxodecahydropyrrolo[1,2-a][1,5]diazocin-5-yl)carbamoyl)-1H-indol-5-yl)difluoromethyl)phosphonic acid], the Ki lay within 1 to 10 µM. For the compound `CC(=O)N1CC[C@H]2CC[C@@H](C(=O)N3CCc4cc(F)ccc4C3)N2C(=O)[C@@H](NC(=O)c2cc3cc(C(F)(F)P(=O)(O)O)ccc3[nH]2)C1` [Compound 344, ((2-(((5S,8,10aR)-3-acetyl-8-(6-fluoro-1,2,3,4-tetrahydroisoquinoline-2-carbonyl)-6-oxodecahydropyrrolo[1,2-a][1,5]diazocin-5-yl)carbamoyl)-1H-indol-5-yl)difluoromethyl)phosphonic acid], the Ki was greater than 10 µM. For `CC(=O)N1CC[C@H]2CC[C@@H](C(=O)N3CCc4ccc(F)cc4C3)N2C(=O)[C@@H](NC(=O)c2cc3cc(C(F)(F)P(=O)(O)O)ccc3[nH]2)C1` [Compound 355, ((2-(((5S,8S,10aR)-3-acetyl-8-(7-fluoro-1,2,3,4-tetrahydroisoquinoline-2-carbonyl)-6-oxodecahydropyrrolo[1,2-a][1,5]diazocin-5-yl)carbamoyl)-1H-indol-5-yl)difluoromethyl)phosphonic acid], the Ki was greater than 10 µM. Regarding `CC(=O)N1CC[C@H]2CC[C@@H](C(=O)N3CCc4cccc(F)c4C3)N2C(=O)[C@@H](NC(=O)c2cc3cc(C(F)(F)P(=O)(O)O)ccc3[nH]2)C1` [Compound 356, ((2-(((5S,8S,10aR)-3-acetyl-8-(8-fluoro-1,2,3,4-tetrahydroisoquinoline-2-carbonyl)-6-oxodecahydropyrrolo[1,2-a][1,5]diazocin-5-yl)carbamoyl)-1H-indol-5-yl)difluoromethyl)phosphonic acid], the Ki was greater than 10 µM. As for `CC(=O)N1CC[C@H]2CC[C@@H](C(=O)N3CCc4ccc(C)cc4C3)N2C(=O)[C@@H](NC(=O)c2cc3cc(C(F)(F)P(=O)(O)O)ccc3[nH]2)C1` [Compound 357, ((2-(((5S,8S,10aR)-3-acetyl-8-(7-methyl-1,2,3,4-tetrahydroisoquinoline-2-carbonyl)-6-oxodecahydropyrrolo[1,2-a][1,5]diazocin-5-yl)carbamoyl)-1H-indol-5-yl)difluoromethyl)phosphonic acid], the figure is greater than 10 µM; as for `CC(=O)N1CC[C@H]2CC[C@@H](C(=O)N3CCc4ccc(C(F)(F)F)cc4C3)N2C(=O)[C@@H](NC(=O)c2cc3cc(C(F)(F)P(=O)(O)O)ccc3[nH]2)C1` [Compound 358, ((2-(((5S,8S,10aR)-3-acetyl-6-oxo-8-(7-(trifluoromethyl)-1,2,3,4-tetrahydroisoquinoline-2-carbonyl)decahydropyrrolo[1,2-a][1,5]diazocin-5-yl)carbamoyl)-1H-indol-5-yl)difluoromethyl)phosphonic acid], greater than 10 µM.

Turning to `CC(=O)N1CC[C@H]2CC[C@@H](C(=O)N3Cc4ccccc4C3)N2C(=O)[C@@H](NC(=O)c2cc3cc(C(F)(F)P(=O)(O)O)ccc3[nH]2)C1` [Compound 359, ((2-(((5S,8S,10aR)-3-acetyl-8-(isoindoline-2-carbonyl)-6-oxodecahydropyrrolo[1,2-a][1,5]diazocin-5-yl)carbamoyl)-1H-indol-5-yl)difluoromethyl)phosphonic acid], the Ki was 0.1 to 1 µM. For the compound `CC(=O)N1CC[C@H]2CC[C@@H](C(=O)N(C)c3ccccc3)N2C(=O)[C@@H](NC(=O)c2cc3cc(C(F)(F)P(=O)(O)O)ccc3[nH]2)C1` [Compound 360, ((2-(((5S,8S,10aR)-3-acetyl-8-(methyl(phenyl)carbamoyl)-6-oxodecahydropyrrolo[1,2-a][1,5]diazocin-5-yl)carbamoyl)-1H-indol-5-yl)difluoromethyl)phosphonic acid], the Ki is greater than 10 µM.

On to `CC(=O)N1CC[C@H]2CC[C@@H](C(=O)Nc3ccccc3)N2C(=O)[C@@H](NC(=O)c2cc3cc(C(F)(F)P(=O)(O)O)ccc3[nH]2)C1` [Compound 361, ((2-(((5S,8S,10aR)-3-acetyl-6-oxo-8-(phenylcarbamoyl)decahydropyrrolo [1,2-a][1,5]diazocin-5-yl)carbamoyl)-1H-indol-5-yl)difluoromethyl)phosphonic acid], for which the Ki is greater than 10 µM. Regarding `CC(=O)N1CC[C@H]2CC[C@@H](C(=O)N(c3ccccc3)c3ccccc3)N2C(=O)[C@@H](NC(=O)c2cc3cc(C(F)(F)P(=O)(O)O)ccc3[nH]2)C1` [Compound 362, ((2-(((5S,8S,10aR)-3-acetyl-8-(diphenylcarbamoyl)-6-oxodecahydropyrrolo[1,2-a][1,5]diazocin-5-yl)carbamoyl)-1H-indol-5-yl)difluoromethyl)phosphonic acid], the Ki lay in the range of 1 to 10 µM. In the case of `O=C(N[C@H]1CCC[C@H]2CC[C@@H](C(=O)N3CCc4ccccc4C3)N2C1=O)c1cc2cc(C(F)(F)P(=O)(O)O)ccc2[nH]1` [Compound 363, (difluoro(2-(((3S,6S,9aS)-5-oxo-3-(1,2,3,4-tetrahydroisoquinoline-2-carbonyl)octahydro-1H-pyrrolo[1,2-a]azepin-6-yl)carbamoyl)-1H-indol-5-yl)methyl)phosphonic acid], the Ki is greater than 10 µM. With `CC(C)C(=O)N1CC[C@H]2CC[C@@H](C(=O)N3CCc4ccccc4C3)N2C(=O)[C@@H](NC(=O)c2cc3cc(C(F)(F)P(=O)(O)O)ccc3[nH]2)C1` [Compound 364, (difluoro(2-(((5S,8S,10aR)-3-isobutyryl-6-oxo-8-(1,2,3,4-tetrahydroisoquinoline-2-carbonyl)decahydropyrrolo[1,2-a][1,5]diazocin-5-yl)carbamoyl)-1H-indol-5-yl)methyl)phosphonic acid] the figure was greater than 10 µM; with `CN1CCC(C(=O)N2CC[C@H]3CC[C@@H](C(=O)N4CCc5ccccc5C4)N3C(=O)[C@@H](NC(=O)c3cc4cc(C(F)(F)P(=O)(O)O)ccc4[nH]3)C2)CC1` [Compound 365, (difluoro(2-(((5S,8S,10aR)-3-(1-methylpiperidine-4-carbonyl)-6-oxo-8-(1,2,3,4-tetrahydroisoquinoline-2-carbonyl)decahydropyrrolo[1,2-a][1,5]diazocin-5-yl)carbamoyl)-1H-indol-5-yl)methyl)phosphonic acid], greater than 10 µM; with `CC(=O)N1CC[C@H]2CC[C@@H](C(=O)N3CCc4cc(Cl)ccc4C3)N2C(=O)[C@@H](NC(=O)c2cc3cc(C(F)(F)P(=O)(O)O)ccc3[nH]2)C1` [Compound 366, ((2-(((5S,8S,10aR)-3-acetyl-8-(6-chloro-1,2,3,4-tetrahydroisoquinoline-2-carbonyl)-6-oxodecahydropyrrolo[1,2-a][1,5]diazocin-5-yl)carbamoyl)-1H-indol-5-yl)difluoromethyl)phosphonic acid], greater than 10 µM. As to `CC(=O)N1CC[C@H]2CC[C@@H](C(=O)N3CCOCC3)N2C(=O)[C@@H](NC(=O)c2cc3cc(C(F)(F)P(=O)(O)O)ccc3[nH]2)C1` [Compound 367, ((2-(((5S,8S,10aR)-3-acetyl-8-(morpholine-4-carbonyl)-6-oxodecahydropyrrolo[1,2-a][1,5]diazocin-5-yl)carbamoyl)-1H-indol-5-yl)difluoromethyl)phosphonic acid], the Ki was greater than 10 µM.
